{"source": "patent US11591336B2", "about": "(Relay Therapeutics, Inc., priority 2017, dated 2023)", "target": "SHP2 (Homo sapiens (Human), UniProt Q06124)", "sequence (Q06124 whole entry)": "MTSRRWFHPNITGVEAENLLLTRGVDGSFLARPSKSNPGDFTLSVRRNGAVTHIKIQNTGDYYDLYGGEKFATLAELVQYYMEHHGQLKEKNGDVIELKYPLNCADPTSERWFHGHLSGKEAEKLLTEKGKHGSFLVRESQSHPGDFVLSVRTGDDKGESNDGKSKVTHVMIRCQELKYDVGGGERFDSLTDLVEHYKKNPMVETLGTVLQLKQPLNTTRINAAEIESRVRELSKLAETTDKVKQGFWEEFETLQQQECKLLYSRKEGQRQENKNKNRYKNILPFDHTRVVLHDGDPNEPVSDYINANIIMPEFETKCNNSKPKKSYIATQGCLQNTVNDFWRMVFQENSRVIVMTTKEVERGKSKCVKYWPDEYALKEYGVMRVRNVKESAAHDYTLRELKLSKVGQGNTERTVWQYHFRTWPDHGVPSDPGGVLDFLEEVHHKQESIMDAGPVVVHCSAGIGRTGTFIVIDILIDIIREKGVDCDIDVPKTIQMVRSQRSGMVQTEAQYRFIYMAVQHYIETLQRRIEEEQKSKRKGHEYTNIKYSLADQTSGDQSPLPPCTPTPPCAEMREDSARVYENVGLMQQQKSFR", "experiment": "SHP2 Allosteric Inhibition Assay (DiFMUP prompt fluorescence)", "format": "biochemical", "conditions": "0.25 nM SHP2 activated with 0.5 μM peptide IRS1_pY1172(dPEG8)pY1222; substrate DiFMUP 100 μM; 25° C.", "note": "pIC50: −log10 of the molar value. Counter-ions that a name gives are not always drawn."}
{"smiles": "C[C@@H]1C[C@H](O)CCN1c1cnc2c(N3CCCc4ncccc43)n[nH]c2n1", "note": "(racemic) [Compound 95, (2R,4R)-1-(3-(3,4-dihydro-1,5-naphthyridin-1(2H)-yl)-1H-pyrazolo[3,4-b]pyrazin-6-yl)-2-methylpiperidin-4-ol]", "values": [{"measurement": "pIC50", "result": "≤ 5.00"}]}
{"smiles": "C[C@@H]1OCC2(CCN(c3cnc4c(N5CCNc6nc(-c7cnn(C)c7)ccc65)n[nH]c4n3)CC2)[C@@H]1N", "note": "[Compound 296, (3S,4S)-3-methyl-8-(3-(6-(1-methyl-1H-pyrazol-4-yl)-3,4-dihydropyrido[2,3-b]pyrazin-1(2H)-yl)-1H-pyrazolo[3,4-b]pyrazin-6-yl)-2-oxa-8-azaspiro[4.5]decan-4-amine]", "values": [{"measurement": "pIC50", "result": "> 6.00"}]}
{"smiles": "CC1(CN)CCN(c2cnc3c(N4CCc5c(C(N)=O)cccc54)n[nH]c3n2)CC1", "note": "[Compound 108, 1-(6-(4-(aminomethyl)-4-methylpiperidin-1-yl)-1H-pyrazolo[3,4-b]pyrazin-3-yl)indoline-4-carboxamide]", "values": [{"measurement": "pIC50", "result": "> 6.00"}]}
{"smiles": "CC1(N)CCN(c2cnc3c(-n4cnc5ccccc54)n[nH]c3n2)CC1", "note": "[Compound 20, 1-(3-(1H-benzo[d]imidazol-1-yl)-1H-pyrazolo[3,4-b]pyrazin-6-yl)-4-methylpiperidin-4-amine]", "values": [{"measurement": "pIC50", "result": "5.00 to 6.00"}]}
{"smiles": "C[C@@H]1OCC2(CCN(c3cnc4c(N5CCCc6c([C@H]7CCOC7)cccc65)n[nH]c4n3)CC2)[C@@H]1N", "note": "[Compound 400]", "values": [{"measurement": "pIC50", "result": "> 6.00"}]}
{"smiles": "C[C@@H]1OCC2(CCN(c3cnc4c(N5CC[C@H](C)c6nc(-c7noc(=O)[nH]7)ccc65)n[nH]c4n3)CC2)[C@@H]1N", "note": "(relative stereo) [Compound 451, 3-[(8R*)-5-{6-[(3S,4S)-4-amino-3-methyl-2-oxa-8-azaspiro[4.5]decan-8-yl]-1H-pyrazolo[3,4-b]pyrazin-3-yl}-8-methyl-5,6,7,8-tetrahydro-1,5-naphthyridin-2-yl]-4,5-dihydro-1,2,4-oxadiazol-5-one]", "values": [{"measurement": "pIC50", "result": "> 6.00"}]}
{"smiles": "Cc1nccc(Oc2n[nH]c3nc(N4CCC(C)(CN)CC4)cnc23)c1Cl", "note": "[Compound 504, (1-(3-((3-chloro-2-methylpyridin-4-yl)oxy)-1H-pyrazolo[3,4-b]pyrazin-6-yl)-4-methylpiperidin-4-yl)methanamine]", "values": [{"measurement": "pIC50", "result": "> 6.00"}]}
{"smiles": "CNC(=O)CN1CCN(c2n[nH]c3nc(N4CCC5(CC4)CO[C@@H](C)[C@H]5N)cnc23)c2ccc(C#N)cc21", "note": "[Compound 399]", "values": [{"measurement": "pIC50", "result": "> 6.00"}]}
{"smiles": "C[C@@H]1OCC2(CCN(c3cnc4c(N5CCCc6nc(N7CCNCC7)ccc65)n[nH]c4n3)CC2)[C@@H]1N", "note": "[Compound 256, (3S,4S)-3-methyl-8-{3-[6-(piperazin-1-yl)-1,2,3,4-tetrahydro-1,5-naphthyridin-1-yl]-1H-pyrazolo[3,4-b]pyrazin-6-yl}-2-oxa-8-azaspiro[4.5]decan-4-amine dihydrochloride]", "values": [{"measurement": "pIC50", "result": "> 6.00"}]}
{"smiles": "C[C@@H]1OCC2(CCN(c3cnc4c(N5CCCc6c5ccc(C#N)c6[C@H]5CC(=O)N(C)C5)n[nH]c4n3)CC2)[C@@H]1N", "note": "[Compound 525]", "values": [{"measurement": "pIC50", "result": "> 6.00"}]}
{"smiles": "CC1Cc2ccccc2N(c2n[nH]c3nc(N4CCC(C)(N)CC4)cnc23)C1", "note": "(stereo not drawn) [Compound 38]", "values": [{"measurement": "pIC50", "result": "5.00 to 6.00"}]}
{"smiles": "C[C@@H]1OCC2(CCN(c3cnc4c(N5CCCc6cc(C#N)ccc65)n[nH]c4n3)CC2)[C@@H]1N", "note": "[Compound 217]", "values": [{"measurement": "pIC50", "result": "> 6.00"}]}
{"smiles": "C[C@@H]1OCC2(CCN(c3cnc4c(N5CCCc6nc(C7=CCCCC7)ccc65)n[nH]c4n3)CC2)[C@@H]1N", "note": "[Compound 396, (3S,4S)-8-{3-[6-(cyclohex-1-en-1-yl)-1,2,3,4-tetrahydro-1,5-naphthyridin-1-yl]-1H-pyrazolo[3,4-b]pyrazin-6-yl}-3-methyl-2-oxa-8-azaspiro[4.5]decan-4-amine hydrochloride]", "values": [{"measurement": "pIC50", "result": "> 6.00"}]}
{"smiles": "CC1(N)CCN(c2cnc3c(N4CCCc5c(-c6ccccn6)cccc54)n[nH]c3n2)CC1", "note": "[Compound 59]", "values": [{"measurement": "pIC50", "result": "> 6.00"}]}
{"smiles": "CNC(=O)c1ccc2c(c1)N(C)CCN2c1n[nH]c2nc(N3CCC4(CC3)CO[C@@H](C)[C@H]4N)cnc12", "note": "[Compound 366, 1-{6-[(3S,4S)-4-amino-3-methyl-2-oxa-8-azaspiro[4.5]decan-8-yl]-1H-pyrazolo[3,4-b]pyrazin-3-yl}-N,4-dimethyl-1,2,3,4-tetrahydroquinoxaline-6-carboxamide]", "values": [{"measurement": "pIC50", "result": "> 6.00"}]}
{"smiles": "CCn1cc(-c2ccc3c(n2)CCCN3c2n[nH]c3nc(N4CCC5(CC4)CO[C@@H](C)[C@H]5N)cnc23)cn1", "note": "[Compound 334, (3S,4S)-8-{3-[6-(1-ethyl-1H-pyrazol-4-yl)-1,2,3,4-tetrahydro-1,5-naphthyridin-1-yl]-1H-pyrazolo[3,4-b]pyrazin-6-yl}-3-methyl-2-oxa-8-azaspiro[4.5]decan-4-amine]", "values": [{"measurement": "pIC50", "result": "> 6.00"}]}
{"smiles": "Cc1nnc(-c2ccc3c(c2)[C@@H](C)CCN3c2n[nH]c3nc(N4CCC5(CC4)CO[C@@H](C)[C@H]5N)cnc23)o1", "note": "[Compound 353]", "values": [{"measurement": "pIC50", "result": "> 6.00"}]}
{"smiles": "NC[C@H]1CCN(c2cnc3c(N4CCCc5ncccc54)n[nH]c3n2)[C@H](c2ccccc2)C1", "note": "[Compound 167]", "values": [{"measurement": "pIC50", "result": "5.00 to 6.00"}]}
{"smiles": "C[C@@H]1OCC2(CCN(c3cnc4c(N5CCc6cnccc6C5)n[nH]c4n3)CC2)[C@@H]1N", "note": "[Compound 291]", "values": [{"measurement": "pIC50", "result": "> 6.00"}]}
{"smiles": "CNC(=O)N1CCN(c2n[nH]c3nc(N4CCC(C)(CN)CC4)cnc23)c2ccccc21", "note": "[Compound 189]", "values": [{"measurement": "pIC50", "result": "> 6.00"}]}
{"smiles": "C[C@@H]1OCC2(CCN(c3cnc4c(N5CCCc6c5ccnc6C5CC5)n[nH]c4n3)CC2)[C@@H]1N", "note": "[Compound 232]", "values": [{"measurement": "pIC50", "result": "> 6.00"}]}
{"smiles": "C[C@@H]1OCC2(CCN(c3cnc4c(N5CC[C@H](C)c6nc(-c7ncon7)ccc65)n[nH]c4n3)CC2)[C@@H]1N", "note": "(single isomer, unassigned) [Compound 370]", "values": [{"measurement": "pIC50", "result": "> 6.00"}]}
{"smiles": "CC1(CN)CCN(c2cnc3c(N4CCCc5c(C(F)F)cccc54)n[nH]c3n2)CC1", "note": "[Compound 78]", "values": [{"measurement": "pIC50", "result": "> 6.00"}]}
{"smiles": "C[C@H]1C[C@H](N)CCN1c1cnc2c(N3CCCc4ncccc43)n[nH]c2n1", "note": "(stereo in doubt) [Compound 25, rel-(2S,4R)-1-(3-(3,4-dihydro-1,5-naphthyridin-1(2H)-yl)-1H-pyrazolo[3,4-b]pyrazin-6-yl)-2-methylpiperidin-4-amine]", "values": [{"measurement": "pIC50", "result": "> 6.00"}]}
{"smiles": "CC(C)n1cc(-c2ccc3c(n2)CCCN3c2n[nH]c3nc(N4CCC5(CC4)CO[C@@H](C)[C@H]5N)cnc23)cn1", "note": "[Compound 312, (3S,4S)-8-(3-(6-(1-isopropyl-1H-pyrazol-4-yl)-3,4-dihydro-1,5-naphthyridin-1(2H)-yl)-1H-pyrazolo[3,4-b]pyrazin-6-yl)-3-methyl-2-oxa-8-azaspiro[4.5]decan-4-amine]", "values": [{"measurement": "pIC50", "result": "> 6.00"}]}
{"smiles": "COC(=O)N1CCN(c2n[nH]c3nc(N4CCC5(CC4)CO[C@@H](C)[C@H]5N)cnc23)c2ccccc21", "note": "[Compound 391]", "values": [{"measurement": "pIC50", "result": "> 6.00"}]}
{"smiles": "COc1cccc2c1CCCN2c1n[nH]c2nc(N3CCC(C)(CN)CC3)cnc12", "note": "[Compound 57]", "values": [{"measurement": "pIC50", "result": "> 6.00"}]}
{"smiles": "C[C@@H]1OCC2(CCN(c3cnc4c(N5CCCc6nc(C#N)ccc65)n[nH]c4n3)CC2)[C@@H]1N", "note": "[Compound 248]", "values": [{"measurement": "pIC50", "result": "> 6.00"}]}
{"smiles": "COCCNC(=O)c1ccc2c(n1)[C@@H](C)CCN2c1n[nH]c2nc(N3CCC4(CC3)CO[C@@H](C)[C@H]4N)cnc12", "note": "[Compound 443]", "values": [{"measurement": "pIC50", "result": "> 6.00"}]}
{"smiles": "Cc1ccc2c(c1)N(c1n[nH]c3nc(N4CCC(C)(CN)CC4)cnc13)CCC2", "note": "[Compound 44]", "values": [{"measurement": "pIC50", "result": "5.00 to 6.00"}]}
{"smiles": "CCc1nc(-c2ccc3c(n2)CCCN3c2n[nH]c3nc(N4CCC5(CC4)CO[C@@H](C)[C@H]5N)cnc23)no1", "note": "[Compound 320, (3S,4S)-8-{3-[6-(5-ethyl-1,2,4-oxadiazol-3-yl)-1,2,3,4-tetrahydro-1,5-naphthyridin-1-yl]-1H-pyrazolo[3,4-b]pyrazin-6-yl}-3-methyl-2-oxa-8-azaspiro[4.5]decan-4-amine; formic acid]", "values": [{"measurement": "pIC50", "result": "> 6.00"}]}
{"smiles": "CC1(N)CCN(c2cnc3c(N4CCCc5ccncc54)n[nH]c3n2)CC1", "note": "[Compound 27]", "values": [{"measurement": "pIC50", "result": "≤ 5.00"}]}
{"smiles": "C[C@@H]1CCN(c2n[nH]c3nc(N4CCC5(CC4)CO[C@@H](C)[C@H]5N)cnc23)c2cccc(-c3cnn(C)c3)c21", "note": "[Compound 277]", "values": [{"measurement": "pIC50", "result": "> 6.00"}]}
{"smiles": "C[C@@H]1OCC2(CCN(c3cnc4c(N5CCCc6c5ccc(C#N)c6[C@@H]5CCCO5)n[nH]c4n3)CC2)[C@@H]1N", "note": "[Compound 522]", "values": [{"measurement": "pIC50", "result": "> 6.00"}]}
{"smiles": "CC(=O)Nc1cccc2c1CCCN2c1n[nH]c2nc(N3CCC4(CC3)CO[C@@H](C)[C@H]4N)cnc12", "note": "[Compound 376, N-(1-{6-[(3S,4S)-4-amino-3-methyl-2-oxa-8-azaspiro[4.5]decan-8-yl]-1H-pyrazolo[3,4-b]pyrazin-3-yl}-1,2,3,4-tetrahydroquinolin-5-yl)acetamide]", "values": [{"measurement": "pIC50", "result": "> 6.00"}]}
{"smiles": "C[C@@H]1OCC2(CCN(c3cnc4c(N5CCCc6nc(-c7cnco7)ccc65)n[nH]c4n3)CC2)[C@@H]1N", "note": "[Compound 318]", "values": [{"measurement": "pIC50", "result": "> 6.00"}]}
{"smiles": "CC(C)NC(=O)c1ccc2c(n1)[C@@H](C)CCN2c1n[nH]c2nc(N3CCC4(CC3)CO[C@@H](C)[C@H]4N)cnc12", "note": "[Compound 446]", "values": [{"measurement": "pIC50", "result": "> 6.00"}]}
{"smiles": "C[C@@H]1OCC2(CCN(c3cnc4c(N5CCCc6c5cccc6[S@@](C)(=N)=O)n[nH]c4n3)CC2)[C@@H]1N", "note": "[Compound 421]", "values": [{"measurement": "pIC50", "result": "> 6.00"}]}
{"smiles": "CC1(CN)CCN(c2cnc3c(N4CCc5ncccc54)n[nH]c3n2)CC1", "note": "[Compound 124]", "values": [{"measurement": "pIC50", "result": "> 6.00"}]}
{"smiles": "CO[C@H]1C[C@H](N2CCN(c3n[nH]c4nc(N5CCC6(CC5)CO[C@@H](C)[C@H]6N)cnc34)c3ccc(C#N)cc32)C1", "note": "[compound 472]", "values": [{"measurement": "pIC50", "result": "5.00 to 6.00"}]}
{"smiles": "C[C@@H]1C[C@@H](N)CCN1c1cnc2c(N3CCCc4ncccc43)n[nH]c2n1", "note": "(stereo in doubt) [Compound 74, rac-(2R,4S)-1-(3-(3,4-dihydro-1,5-naphthyridin-1(2H)-yl)-1H-pyrazolo[3,4-b]pyrazin-6-yl)-2-methylpiperidin-4-amine]", "values": [{"measurement": "pIC50", "result": "> 6.00"}]}
{"smiles": "CC1(CN)CCN(c2cnc3c(N4CCCc5nc(C(N)=O)ccc54)n[nH]c3n2)CC1", "note": "[Compound 175, 5-(6-(4-(aminomethyl)-4-methylpiperidin-1-yl)-1H-pyrazolo[3,4-b]pyrazin-3-yl)-5,6,7,8-tetrahydro-1,5-naphthyridine-2-carboxamide]", "values": [{"measurement": "pIC50", "result": "> 6.00"}]}
{"smiles": "c1ccc(C2CCCN(c3cnc4c(N5CCCc6ncccc65)n[nH]c4n3)C2)cc1", "note": "(stereo not drawn) [Compound 152]", "values": [{"measurement": "pIC50", "result": "≤ 5.00"}]}
{"smiles": "CC1(CN)CCN(c2cnc3c(N4CCc5cc(C#N)ccc54)n[nH]c3n2)CC1", "note": "[Compound 133]", "values": [{"measurement": "pIC50", "result": "> 6.00"}]}
{"smiles": "C[C@H]1Cc2ccccc2N1c1n[nH]c2nc(N3CCC(C)(CN)CC3)cnc12", "note": "[Compound 134]", "values": [{"measurement": "pIC50", "result": "> 6.00"}]}
